{"source": "patent US20030125287A1", "about": "“Antisense oligonucleotides and methods to induce tumor cell death” (Hybridon, Inc., priority 2001, published 2003)", "format_in_all_cases": "cell-based, human", "key": {"MSN cells [1]": {"test_system": "MSN cells", "test": "Trypan blue assay (cell death) in MSN cells", "conditions": "for percentage of cells Trypan blue positive: MSN cells", "description": "The role of survivin as an inhibitor of apoptosis and as a survival protein for tumors was investigated by examining whether the down-regulation of survivin was sufficient to induce cell death in MSN cells. Following transfection with lipofectin, different concentrations of survivin antisense oligonucleotide 904 (200 nM, 400 nM, 600 nM), or the mismatched oligonucleotide 1132 (400 nM and 600 nM), the number of Trypan blue positive cells (only dead cells are stained by the Trypan blue stain) were counted 48 hours after treatment. The number of dead cells was assessed relative to the lipofectin-treated control cells. In the presence of 200 nM, 400 nM, and 600 nM concentrations of antisense oligonucleotide 904, the percentage of cells that were Trypan blue positive were 52%, 59% and 62%, respectively (FIG. 4A). The mismatched oligonucleotide 1132 (400 nM and 600 nM) was similar to the lipofectin control treatment, wherein 23% (400 nM) and 22% (600 nM) of the cells were Trypan blue-positive. About 6% of the cells in the untreated control were Trypan blue positive.\nIn another experiment, following transfection with lipofectin, mismatched oligonucleotide 1132 (600 nM), or survivin antisense oligonucleotide 904 or 906 (600 nM), the numbers of Trypan blue positive cells (dead cells) were counted 48 h post-treatment. In the presence of 600 nM survivin antisense oligonucleotide 904 and 906, the percentages of cells that were Trypan blue positive were 73% and 81%, respectively (FIG. 4B). Upon treatment with lipofectin or the mismatched oligonucleotide 1132, only 7-11% of the cells were Trypan blue positive.\nFurther experiments were conducted to examine whether survivin antisense oligonucleotide-induced cell death could be blocked by the broad-spectrum caspase inhibitor zVAD-fmk. MSN cells were treated with lipofectin or 600 nM survivin antisense oligonucleotide 904, 906, or mismatch oligonucleotide 1132 alone, or co-treated with 20 μM zVAD-fmk for 48 h, and stained with 0.04% Trypan blue.\nCells were harvested 48 hours after survivin antisense treatment, stained with 0.04% Trypan blue (GIBCO), and counted on a hemocytometer. The number of Trypan blue positive cells relative to the total number of cells in each field was obtained and the data were expressed as a percentage of dead cells relative to the total cell number. Individual experiments were performed in triplicate. MSN cell studies were performed three times, while studies in TC620 cells were performed once."}, "MSN cells [2]": {"test_system": "MSN cells", "test": "Propidium iodide staining, nuclear morphology of MSN cells", "conditions": "for nuclear morphology by PI staining: 600 nM (FIG. 9); for percentage of cells with abnormal nuclear morphology by PI staining: 600 nM alone (FIG. 9G)", "description": "Propidium iodide (PI) staining and phase microscopy were used to assess the nuclear morphology of the survivin antisense oligonucleotide-treated MSN cells. MSN cells were treated with lipofectin (FIG. 9A), or 600 nM mismatch oligonucleotide 1132 (FIG. 9B) or survivin antisense oligonucleotide 904 (FIGS. 9C and 9E) or 906 (FIG. 9D), and stained with PI. To assess the effect on nuclear morphology of co-administration of survivin antisense oligonucleotide and the caspases inhibitor zVAD-fmk, MSN cells were treated with 600 nM survivin antisense oligonucleotide 904, 906, or mismatch oligonucleotide 1132 alone, or in the presence of 20 μM zVAD-fmk, and stained with PI (FIG. 9G).\nSurvivin antisense oligonucleotide-treated cells were fixed with 4% paraformaldehyde for 30 min at room temperature, washed with 1×TBS, permeabilized with 0.1% Triton X-100 for 30 min and treated with 10 μg/ml DNasc free RNase A (Sigma) for 60 min. Nuclei were stained with 200 μg /ml PI for 30 min at 4° C. and washed twice with 1×TBS. Nuclear morphology was assessed on an inverted Olympus 1×70 fluorescence microscope equipped with phase and epifluorescence optics. For each treatment about 600 nuclei were scored as normal, condensed (apoptotic), or abnormal (macronuclei, multilobed) on 15 random, 40×objective fields in duplicate. Quantification results are mean±SEM obtained from two independent experiments performed in duplicate."}, "survivin": {"test_system": "survivin", "test": "Western blot of survivin protein in antisense oligonucleotide-treated MSN cells", "conditions": "for decrease in survivin protein levels relative to lipofectin-treated control, normalized to β-tubulin / percentage of survivin protein over β-tubulin relative to lipofectin: 400 nM, 48 hours (FIG. 3A); for percentage of survivin protein over β-tubulin relative to lipofectin / effect on survivin protein levels: lipofectin; for effect on survivin protein levels: 48 hours", "description": "Six survivin (900-906) antisense oligonucleotides were administered at 400 nM to MSN cells in the presence of lipofectin for 48 hours. Each lane has 100 μg of protein. The blots were cut at 32.9 kD and the bottom incubated with the survivin polyclonal antibody (1:500), while the top was incubated with β-tubulin.\nSince survivin antisense oligonucleotide 903 decreased survivin protein levels by 76%, the dose dependency of 903 on survivin protein levels was further studied. As expected, mismatched oligonucleotides had no effect on the relative abundance of survivin. […] In the presence of lipofectin, survivin antisense oligonucleotide 903 was administered to MSN cells for 48 hours at 50 nM to 200 nM. Total protein (100 μg) was loaded/lane.\nSurvivin antisense oligonucleotide 904 decreased survivin protein levels by 46% and 60% while survivin levels were unchanged in cells incubated with the mismatched oligonucleotide 1132. MSN cells were treated with lipofectin, survivin antisense oligonucleotide 904 or 908 at 400 nM and 600 nM, or mismatched oligonucleotide 1132 at 400 nM concentrations. Total protein (100 μg) was separated by SDS polyacrylamide gel electrophoresis and transferred to a nitrocellulose support. The blots were cut at 32.9 kD and the bottom blots incubated with the survivin polyclonal antibody (1:500), while the top blots were incubated with tubulin.\nThe antisense oligonucleotides were synthesized on solid support with an automated DNA synthesizer using β-cyanoethylphosphoramidite chemistry. In order to prevent rapid degradation of the antisense oligonucleotides by cellular nucleases, oxidation was carried out with Becauge sulfurizing agent to obtain phosphorothioate backbone modified oligonucleotides. After their synthesis, the oligonucleotides were released from the solid support, deprotected, purified by reverse-phase HPLC, desalted, filtered and lyophilized. The purity and sequence integrity of oligonucleotides was ascertained by capillary gel electrophoresis and MALDI-TOF mass spectral analysis and the concentrations measured at […]. Cells were grown in 100 mm dishes and oligonucleotide treatment was performed on subconfluent cultures in the presence of Lipofectin (GIBCO) according to the manufacturer. Forty-eight hours following treatment, total protein homogenates were isolated.\nTen micrograms of the fusion protein was incubated with the survivin antibody (1:500) at 4° C. for 2 hours to overnight prior to immunoblotting. […] Blots were cut at 32.9 kD, and the bottom part of the blots were incubated with the survivin antibody overnight at 4° C. and visualized by enhanced chemiluminescence (Enhanced Chemiluminescence, Amersham, Arlington Heights, Ill.) as previously described (Sharma et al. Cell. Motil. Cytoskeleton 27:234-247)."}, "[3]": {"conditions": "600 nM co-treated with 20 μM zVAD-fmk, 48 h (FIG. 4B)"}}, "note": "Entries after “also recorded” stand apart in the source; their conditions may differ. Oligonucleotides are written 5' to 3', each unit as a sugar letter and its base; * is a phosphorothioate linkage, no mark a phosphodiester; rarer units and linkages stand in square brackets, end groups in braces. Plain capitals give the bases only. d = 2'-deoxy (DNA)"}
{"substance": "d(TCTTGGCTCTTTCTCTGTCC) (antisense dT*dC*dT*dT*dG*dG*dC*dT*dC*dT*dT*dT*dC*dT*dC*dT*dG*dT*dC*dC) [Oligo 904, 20-mer phosphorothioate survivin antisense oligonucleotide, complementary to survivin mRNA 5248-5267]", "values": [{"measurement": "cell death, Trypan blue positive cells", "setting": "MSN cells [1]; MSN cells (FIG. 4A)", "result": "dose-dependent increase in cell death"}, {"measurement": "percentage of cells Trypan blue positive", "setting": "MSN cells [1]; 200 nM, 48 hours (FIG. 4A)", "result": 52, "unit": "%"}, {"measurement": "percentage of cells Trypan blue positive", "setting": "MSN cells [1]; 400 nM, 48 hours (FIG. 4A)", "result": 59, "unit": "%"}, {"measurement": "percentage of cells Trypan blue positive", "setting": "MSN cells [1]; 600 nM alone, 48 h (FIG. 4B)", "result": 73, "unit": "%"}, {"measurement": "percentage of cells Trypan blue positive", "setting": "MSN cells [1]; [3]", "result": 73, "unit": "%"}, {"measurement": "percentage of cells Trypan blue positive", "setting": "MSN cells [1]; 600 nM, 48 hours (FIG. 4A)", "result": 62, "unit": "%"}, {"measurement": "nuclear morphology by PI staining", "setting": "MSN cells [2]", "result": "abnormal multiple multilobed nuclei"}, {"measurement": "percentage of cells with abnormal nuclear morphology by PI staining", "setting": "MSN cells [2]", "result": 27, "unit": "%"}, {"measurement": "decrease in survivin protein levels", "setting": "survivin; 400 nM (FIG. 4C)", "result": 46, "unit": "%"}, {"measurement": "decrease in survivin protein levels relative to lipofectin-treated control, normalized to β-tubulin", "setting": "survivin", "result": 64, "unit": "%"}, {"measurement": "percentage of survivin protein over β-tubulin relative to lipofectin", "setting": "survivin", "result": 35.7, "unit": "%"}, {"measurement": "decrease in survivin protein levels", "setting": "survivin; 600 nM (FIG. 4C)", "result": 60, "unit": "%"}, {"measurement": "effect on survivin protein levels", "setting": "survivin", "result": "effective in reducing survivin protein levels in a concentration-dependent manner"}]}
{"substance": "d(GCTTCCCAGTCACATCCTGT) (antisense dG*dC*dT*dT*dC*dC*dC*dA*dG*dT*dC*dA*dC*dA*dT*dC*dC*dT*dG*dT) [Oligo 906, 20-mer phosphorothioate survivin antisense oligonucleotide, complementary to survivin mRNA 11897-11916]", "values": [{"measurement": "percentage of cells Trypan blue positive", "setting": "MSN cells [1]; 600 nM alone, 48 h (FIG. 4B)", "result": 81, "unit": "%"}, {"measurement": "percentage of cells Trypan blue positive", "setting": "MSN cells [1]; [3]", "result": 74, "unit": "%"}, {"measurement": "nuclear morphology by PI staining", "setting": "MSN cells [2]", "result": "abnormal multiple multilobed nuclei"}, {"measurement": "percentage of cells with abnormal nuclear morphology by PI staining", "setting": "MSN cells [2]", "result": 31, "unit": "%"}, {"measurement": "decrease in survivin protein levels relative to lipofectin-treated control, normalized to β-tubulin", "setting": "survivin", "result": 73, "unit": "%"}, {"measurement": "percentage of survivin protein over β-tubulin relative to lipofectin", "setting": "survivin", "result": 26.9, "unit": "%"}]}
{"substance": "d(GCACCTAGTCTCCCTGCACC) (DNA, all phosphorothioate, methylation of C not given here) [Oligo 1132, mismatched phosphorothioate control oligonucleotide, not complementary to survivin mRNA, reference compound]", "values": [{"measurement": "percentage of cells Trypan blue positive", "setting": "MSN cells [1]; 400 nM, 48 hours (FIG. 4A)", "result": 23, "unit": "%"}, {"measurement": "percentage of cells Trypan blue positive", "setting": "MSN cells [1]; 600 nM alone, 48 h (FIG. 4B)", "result": "7-11%"}, {"measurement": "percentage of cells Trypan blue positive", "setting": "MSN cells [1]; 600 nM, 48 hours (FIG. 4A)", "result": 22, "unit": "%"}, {"measurement": "nuclear morphology by PI staining", "setting": "MSN cells [2]", "result": "normal nuclear morphology"}, {"measurement": "effect on survivin protein levels", "setting": "survivin", "result": "had no effect; also recorded: did not alter survivin protein levels"}]}
